Results published in patent US11912682B2, “Isoindolinone compounds” (Monte Rosa Therapeutics, Inc., priority 2021, dated 2024).
Read-outs that look alike come from different tables or passages of the source. One block for each compound: values may come before it.

Columns and labels:
[1] = target: Full length wild-type cereblon CRBN (Homo sapiens (Human), UniProt Q96SW2); assay: fluorescence polarization (FP) assay, cereblon binding
From the text: Compound activity was monitored in a fluorescence polarization (FP) homogeneous assay using 1-[5-({2-[2-(2-{[2-(2,6-dioxopiperidin-3-yl)-1,3-dioxo-2,3-dihydro-1H-isoindol-4-yl]oxy}acetamido)ethoxy]ethyl}carbamoyl)pentyl]-3,3-dimethyl-2-[(1E,3E)-5-[(2E)-1,3,3-trimethyl-5-sulfo-2,3-dihydro-1H-indol-2-ylidene]penta-1,3-dien-1-yl]-3H-indol-1-ium-5-sulfonate as a fluorescent probe. Unless otherwise stated, all reagents were purchased from Sigma Aldrich. […] Full length wild-type cereblon CRBN (80.0 nM, 10 μL) was incubated in assay buffer containing 20 mM HEPES (pH 8.0), […], 0.5 mM TCEP and 0.05% Tween 20 in the presence or absence of compound (300 nL). Inhibitors were stored as 10 mM DMSO stocks in an inert environment (low humidity, dark, low oxygen, room temperature) using the Storage Pod System. […] Following incubation at room temperature for 30 min, the assay was initiated by dispensing the probe to a final concentration of 5 nM (2.5 nL of a 20 μM stock) using the Echo ESXX. […] The FP signal was subsequently normalized to the no-compound control (i.e., DMSO). Analysis and IC50 values were derived using Dotmatics (Dotmatics UK) software.

[2] = target: GSPT1 (Homo sapiens (Human), UniProt P15170+Q96SW2); assay: immunofluorescence assay for GSPT1 degradation in CAL-51 cells (Example 4); type: cell-based
Method in brief: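 CAL-51 cells on fibronectin-coated plates were treated 6 h with serial dilutions (30 μM to 0.1 nM), then fixed and immunostained for GSPT1 with DAPI and phalloidin counterstains. Per-cell mean GSPT1 intensity from high-content imaging, normalized to controls; DC50 by non-linear regression.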

[3] = 6 hours, read-out: Activity for GSPT1 degradation, Code (DC50)
[4] = GSPT1 degradation, read-out: DC50 value

Chain of Full length wild-type cereblon CRBN (Q96SW2 whole entry): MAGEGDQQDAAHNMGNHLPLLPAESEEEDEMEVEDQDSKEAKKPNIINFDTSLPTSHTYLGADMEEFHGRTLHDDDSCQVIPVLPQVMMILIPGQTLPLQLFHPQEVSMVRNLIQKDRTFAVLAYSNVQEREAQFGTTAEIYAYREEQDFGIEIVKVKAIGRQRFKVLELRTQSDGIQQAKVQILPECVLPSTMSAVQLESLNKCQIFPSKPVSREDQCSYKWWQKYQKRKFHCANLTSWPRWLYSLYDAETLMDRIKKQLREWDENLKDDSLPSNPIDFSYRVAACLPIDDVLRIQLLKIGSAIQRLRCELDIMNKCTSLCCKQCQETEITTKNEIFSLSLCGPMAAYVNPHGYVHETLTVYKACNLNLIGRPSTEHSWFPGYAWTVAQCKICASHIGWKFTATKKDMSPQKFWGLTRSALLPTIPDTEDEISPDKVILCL
Chain of GSPT1 (P15170 whole entry): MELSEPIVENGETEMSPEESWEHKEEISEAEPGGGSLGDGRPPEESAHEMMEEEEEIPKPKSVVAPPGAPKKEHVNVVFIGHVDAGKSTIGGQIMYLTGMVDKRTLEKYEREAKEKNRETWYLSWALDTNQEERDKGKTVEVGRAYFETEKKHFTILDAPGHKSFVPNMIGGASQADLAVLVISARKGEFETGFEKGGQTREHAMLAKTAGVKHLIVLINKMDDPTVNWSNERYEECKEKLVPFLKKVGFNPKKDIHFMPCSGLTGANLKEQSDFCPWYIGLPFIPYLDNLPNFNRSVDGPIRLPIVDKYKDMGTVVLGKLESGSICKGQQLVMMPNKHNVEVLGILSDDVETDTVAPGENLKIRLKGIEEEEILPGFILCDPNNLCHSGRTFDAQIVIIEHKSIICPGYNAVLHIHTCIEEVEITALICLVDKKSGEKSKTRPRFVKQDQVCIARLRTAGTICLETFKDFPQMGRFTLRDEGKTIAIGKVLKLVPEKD
Chain of GSPT1 (Q96SW2 whole entry): as the sequence (Q96SW2 whole entry) above
Chain of GSPT1 (Q16531 2-1140 partner): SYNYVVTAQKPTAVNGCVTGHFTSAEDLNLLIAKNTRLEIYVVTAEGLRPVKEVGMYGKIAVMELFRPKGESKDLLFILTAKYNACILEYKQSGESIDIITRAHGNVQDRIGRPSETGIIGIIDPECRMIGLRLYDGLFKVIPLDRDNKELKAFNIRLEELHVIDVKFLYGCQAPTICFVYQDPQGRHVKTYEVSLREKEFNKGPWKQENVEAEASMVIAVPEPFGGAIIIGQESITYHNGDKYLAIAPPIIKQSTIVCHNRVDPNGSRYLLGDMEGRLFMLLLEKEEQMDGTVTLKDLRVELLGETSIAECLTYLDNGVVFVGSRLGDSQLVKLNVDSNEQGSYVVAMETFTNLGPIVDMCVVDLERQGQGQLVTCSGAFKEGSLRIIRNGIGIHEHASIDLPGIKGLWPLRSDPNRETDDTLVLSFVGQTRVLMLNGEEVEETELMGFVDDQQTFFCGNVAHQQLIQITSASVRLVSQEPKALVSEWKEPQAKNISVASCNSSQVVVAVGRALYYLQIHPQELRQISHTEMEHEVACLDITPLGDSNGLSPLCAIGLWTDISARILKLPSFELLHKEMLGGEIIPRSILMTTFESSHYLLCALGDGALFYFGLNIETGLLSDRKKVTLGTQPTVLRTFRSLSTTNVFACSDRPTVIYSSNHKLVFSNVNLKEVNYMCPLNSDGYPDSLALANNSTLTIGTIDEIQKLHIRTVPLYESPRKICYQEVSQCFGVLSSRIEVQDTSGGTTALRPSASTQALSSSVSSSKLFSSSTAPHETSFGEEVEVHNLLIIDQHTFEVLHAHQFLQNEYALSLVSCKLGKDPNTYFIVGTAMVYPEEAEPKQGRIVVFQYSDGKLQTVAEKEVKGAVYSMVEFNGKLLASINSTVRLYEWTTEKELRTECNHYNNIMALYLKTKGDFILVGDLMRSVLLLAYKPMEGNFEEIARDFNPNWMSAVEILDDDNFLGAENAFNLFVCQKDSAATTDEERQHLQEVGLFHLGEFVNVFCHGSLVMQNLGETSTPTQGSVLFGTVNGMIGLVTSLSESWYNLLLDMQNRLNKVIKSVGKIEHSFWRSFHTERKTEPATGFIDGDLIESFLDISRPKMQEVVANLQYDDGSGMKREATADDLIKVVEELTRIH

SMILES: O=C1CCC(N2Cc3ccc(COC(=O)Nc4ccc(F)c(OC(F)F)c4)cc3C2=O)C(=O)N1 (centres unmarked) [Compound 32]
- IC50 ([1]; read-out: rFP IC50): > 1700 nM
- DC50 [2, 3]: 30 to 300 nM

SMILES: Cc1cc(C)c(F)c(NC(=O)OCc2ccc3c(c2)C(=O)N(C2CCC(=O)NC2=O)C3)c1 (centres unmarked) [Compound 122, (2-(2,6-dioxopiperidin-3-yl)-3-oxoisoindolin-5-yl)methyl (2-fluoro-3,5-dimethylphenyl)carbamate]
- IC50 ([1]; read-out: rFP IC50): < 500 nM
- DC50 [2, 3]: 30 to 300 nM

SMILES: O=C1CCC(N2Cc3ccc(COC(=O)N4CCCC4)cc3C2=O)C(=O)N1 (centres unmarked) [Compound 26]
- IC50 ([1]; read-out: IC50 value): < 1100 nM
- DC50 [2, 3]: > 300 nM

SMILES: O=C1CCC(N2Cc3ccc(COC(=O)NC45CC(c6ccccc6)(C4)C5)cc3C2=O)C(=O)N1 (centres unmarked) [Compound 126, (2-(2,6-dioxopiperidin-3-yl)-3-oxoisoindolin-5-yl)methyl (3-phenylbicyclo[1.1.1]pentan-1-yl carbamate]
- IC50 ([1]; read-out: rFP IC50): < 500 nM
- DC50 [2, 3]: < 30 nM
- DC50 [2, 4]: ≤ 30 nM

SMILES: COc1ccccc1CNC(=O)OCc1ccc2c(c1)C(=O)N(C1CCC(=O)NC1=O)C2 (centres unmarked) [Compound 97]
- IC50 ([1]; read-out: IC50 value): < 1100 nM
- DC50 [2, 3]: > 300 nM

SMILES: CC1(c2ccc(NC(=O)OCc3ccc4c(c3)C(=O)N(C3CCC(=O)NC3=O)C4)cc2)CC1 (centres unmarked) [Compound 58]
- IC50 ([1]; read-out: IC50 value): < 1100 nM
- DC50 [2, 3]: < 30 nM
- DC50 [2, 4]: ≤ 30 nM

SMILES: Cc1cc(NC(=O)OCc2ccc3c(c2)C(=O)N(C2CCC(=O)NC2=O)C3)cc(C)c1C#N (centres unmarked) [Compound 108]
- IC50 ([1]; read-out: rFP IC50): < 500 nM
- DC50 [2, 3]: 30 to 300 nM

SMILES: Cc1c(CN2CCOCC2)cc(NC(=O)OCc2ccc3c(c2)C(=O)N(C2CCC(=O)NC2=O)C3)cc1OC(F)F (centres unmarked) [Compound 25]
- IC50 ([1]; read-out: IC50 value): < 1100 nM
- DC50 [2, 3]: < 30 nM
- DC50 [2, 4]: ≤ 30 nM

SMILES: O=C1CCC(N2Cc3ccc(COC(=O)NC4CCCC4)cc3C2=O)C(=O)N1 (centres unmarked) [Compound 29]
- IC50 ([1]; read-out: IC50 value): < 1100 nM
- DC50 [2, 3]: > 300 nM

SMILES: Cc1ccc(NC(=O)OCc2ccc3c(c2)C(=O)N(C2CCC(=O)NC2=O)C3)cc1C (centres unmarked) [Compound 129]
- IC50 ([1]; read-out: rFP IC50): < 500 nM
- DC50 [2, 3]: 30 to 300 nM

SMILES: Cc1c(CN2CCOCC2)cc(NC(=O)OCc2ccc3c(c2)C(=O)N(C2CCC(=O)NC2=O)C3)cc1OC(F)(F)F (centres unmarked) [Compound 34]
- IC50 ([1]; read-out: rFP IC50): > 1700 nM
- DC50 [2, 3]: < 30 nM
- DC50 [2, 4]: ≤ 30 nM

SMILES: CN1CCC(COc2cc(Cl)cc(NC(=O)OCc3ccc4c(c3)C(=O)N(C3CCC(=O)NC3=O)C4)c2)C1 (centres unmarked) [Compound 40]
- IC50 ([1]; read-out: rFP IC50): < 500 nM
- DC50 [2, 3]: 30 to 300 nM

SMILES: O=C1CCC(N2Cc3ccc(COC(=O)Nc4cc(Cl)cc(OCC5CCNC5)c4)cc3C2=O)C(=O)N1 (centres unmarked) [Compound 16]
- IC50 ([1]; read-out: rFP IC50): < 500 nM
- DC50 [2, 3]: > 300 nM

SMILES: O=C1CCC(N2Cc3ccc(COC(=O)Nc4ccc(-c5ccccc5F)nc4)cc3C2=O)C(=O)N1 (centres unmarked) [Compound 84]
- IC50 ([1]; read-out: rFP IC50): < 500 nM
- DC50 [2, 3]: < 30 nM
- DC50 [2, 4]: ≤ 30 nM

SMILES: O=C1CCC(N2Cc3ccc(COC(=O)NCc4ccccc4)cc3C2=O)C(=O)N1 (centres unmarked) [Compound 98]
- IC50 ([1]; read-out: IC50 value): < 1100 nM
- DC50 [2, 3]: > 300 nM

SMILES: O=C1CCC(N2Cc3ccc(COC(=O)Nc4cc(OC(F)(F)F)ccc4Cl)cc3C2=O)C(=O)N1 (centres unmarked) [Compound 125, (2-(2,6-dioxopiperidin-3-yl)-3-oxoisoindolin-5-yl)methyl(2-chloro-5-(trifluoromethoxy)phenyl)carbamate]
- IC50 ([1]; read-out: rFP IC50): > 1700 nM
- DC50 [2, 3]: > 300 nM

SMILES: COc1ccccc1-c1ccc(NC(=O)OCc2ccc3c(c2)C(=O)N(C2CCC(=O)NC2=O)C3)cn1 (centres unmarked) [Compound 87]
- IC50 ([1]; read-out: IC50 value): < 1100 nM
- DC50 [2, 3]: < 30 nM
- DC50 [2, 4]: ≤ 30 nM

SMILES: O=C1CCC(N2Cc3ccc(COC(=O)Nc4cc(F)cc(OC(F)F)c4)cc3C2=O)C(=O)N1 (centres unmarked) [Compound 31]
- IC50 ([1]; read-out: rFP IC50): > 1700 nM
- DC50 [2, 3]: 30 to 300 nM

SMILES: Cc1c(Cl)cc(NC(=O)OCc2ccc3c(c2)C(=O)N(C2CCC(=O)NC2=O)C3)cc1OC1CCNC1 (centres unmarked) [Compound 44]
- IC50 ([1]; read-out: IC50 value): < 1100 nM
- DC50 [2, 3]: 30 to 300 nM

SMILES: CC(NC(=O)OCc1ccc2c(c1)C(=O)N(C1CCC(=O)NC1=O)C2)c1ccccc1 (centres unmarked) [Compound 102]
- IC50 ([1]; read-out: IC50 value): < 1100 nM
- DC50 [2, 3]: > 300 nM

SMILES: O=C1CCC(N2Cc3ccc(COC(=O)Nc4ccc(-c5ccccn5)cc4F)cc3C2=O)C(=O)N1 (centres unmarked) [Compound 135, (2-(2,6-dioxopiperidin-3-yl)-3-oxoisoindolin-5-yl)methyl (2-fluoro-4-(pyridin-2-yl)phenyl)carbamate]
- IC50 ([1]; read-out: rFP IC50): < 500 nM
- DC50 [2, 3]: < 30 nM
- DC50 [2, 4]: ≤ 30 nM

SMILES: O=C1CCC(N2Cc3ccc(COC(=O)N4CCC(Oc5ccccc5)C4)cc3C2=O)C(=O)N1 (centres unmarked) [Compound 30]
- IC50 ([1]; read-out: rFP IC50): < 500 nM
- DC50 [2, 3]: > 300 nM

Continued, values first:

- IC50 ([1]; read-out: IC50 value): < 1100 nM
- DC50 [2, 3]: 30 to 300 nM
SMILES: O=C1CCC(N2Cc3ccc(COC(=O)Nc4cnc5c(c4)CCC5)cc3C2=O)C(=O)N1 (centres unmarked) [Compound 53]

- IC50 ([1]; read-out: rFP IC50): < 500 nM
- DC50 [2, 3]: 30 to 300 nM
SMILES: O=C1CCC(N2Cc3ccc(COC(=O)Nc4ccc(N5CCC(F)(F)CC5)nc4)cc3C2=O)C(=O)N1 (centres unmarked) [Compound 78]

- IC50 ([1]; read-out: IC50 value): < 1100 nM
- DC50 [2, 3]: < 30 nM
- DC50 [2, 4]: ≤ 30 nM
SMILES: Cc1c(Cl)cc(NC(=O)OCc2ccc3c(c2)C(=O)N(C2CCC(=O)NC2=O)C3)cc1CN1CCOCC1 (centres unmarked) [Compound 2]

- IC50 ([1]; read-out: rFP IC50): > 1700 nM
- DC50 [2, 3]: 30 to 300 nM
SMILES: O=C1CCC(N2Cc3ccc(COC(=O)Nc4ccc(C5CCC5)cc4)cc3C2=O)C(=O)N1 (centres unmarked) [Compound 104]

- IC50 ([1]; read-out: IC50 value): < 1100 nM
- DC50 [2, 3]: 30 to 300 nM
SMILES: CC1(c2ccc(NC(=O)OCc3ccc4c(c3)C(=O)N(C3CCC(=O)NC3=O)C4)cc2)COC1 (centres unmarked) [Compound 62]

- IC50 ([1]; read-out: IC50 value): < 1100 nM
- DC50 [2, 3]: > 300 nM
SMILES: CN(C)C1CN(c2ccc(NC(=O)OCc3ccc4c(c3)C(=O)N(C3CCC(=O)NC3=O)C4)cn2)C1 (centres unmarked) [Compound 89]

- IC50 ([1]; read-out: IC50 value): < 1100 nM
- DC50 [2, 3]: 30 to 300 nM
SMILES: O=C1CCC(N2Cc3ccc(COC(=O)Nc4cnc(N5CCCCC5)nc4)cc3C2=O)C(=O)N1 (centres unmarked) [Compound 64]

- IC50 ([1]; read-out: rFP IC50): < 500 nM
- DC50 [2, 3]: 30 to 300 nM
SMILES: O=C1CCC(N2Cc3ccc(COC(=O)Nc4ccc(N5CCCC(F)(F)C5)nc4)cc3C2=O)C(=O)N1 (centres unmarked) [Compound 73]

- IC50 ([1]; read-out: rFP IC50): < 500 nM
- DC50 [2, 3]: > 300 nM
SMILES: CCc1cc(NC(=O)OCc2ccc3c(c2)C(=O)N(C2CCC(=O)NC2=O)C3)ccn1 (centres unmarked) [Compound 63]

- IC50 ([1]; read-out: rFP IC50): > 1700 nM
- DC50 [2, 3]: 30 to 300 nM
SMILES: COc1cc(NC(=O)OCc2ccc3c(c2)C(=O)N(C2CCC(=O)NC2=O)C3)ccc1C (centres unmarked) [Compound 37]

- IC50 ([1]; read-out: IC50 value): < 1100 nM
- DC50 [2, 3]: 30 to 300 nM
SMILES: Cc1cc(NC(=O)OCc2ccc3c(c2)C(=O)N(C2CCC(=O)NC2=O)C3)cc(C)n1 (centres unmarked) [Compound 7]

- IC50 ([1]; read-out: rFP IC50): < 500 nM
- DC50 [2, 3]: 30 to 300 nM
SMILES: O=C1CCC(N2Cc3ccc(COC(=O)Nc4ccc5c(c4)CCO5)cc3C2=O)C(=O)N1 (centres unmarked) [Compound 66]

- IC50 ([1]; read-out: IC50 value): < 1100 nM
- DC50 [2, 3]: 30 to 300 nM
SMILES: O=C1CCC(N2Cc3ccc(COC(=O)Nc4ccc(C5CCC5)nc4)cc3C2=O)C(=O)N1 (centres unmarked) [Compound 105]

- IC50 ([1]; read-out: rFP IC50): < 500 nM
- DC50 [2, 3]: 30 to 300 nM
SMILES: O=C1CCC(N2Cc3ccc(COC(=O)Nc4ccc(N5CCCC5)nc4)cc3C2=O)C(=O)N1 (centres unmarked) [Compound 60]

- IC50 ([1]; read-out: IC50 value): < 1100 nM
- DC50 [2, 3]: 30 to 300 nM
SMILES: O=C1CCC(N2Cc3ccc(COC(=O)Nc4ccc5c(c4)CCCO5)cc3C2=O)C(=O)N1 (centres unmarked) [Compound 67]

- IC50 ([1]; read-out: rFP IC50): < 500 nM
- DC50 [2, 3]: < 30 nM
- DC50 [2, 4]: ≤ 30 nM
SMILES: C[C@H]1CCCN1c1ccc(NC(=O)OCc2ccc3c(c2)C(=O)N(C2CCC(=O)NC2=O)C3)cn1 (stereo partly drawn) [Compound 156, (2-(2,6-dioxopiperidin-3-yl)-3-oxoisoindolin-5-yl)methyl (6-((S)-2-methylpyrrolidin-1-yl)pyridin-3-yl)carbamate]

- IC50 ([1]; read-out: IC50 value): < 1100 nM
- DC50 [2, 3]: 30 to 300 nM
SMILES: O=C1CCC(N2Cc3ccc(COC(=O)Nc4ccc5c(c4)OCC5)cc3C2=O)C(=O)N1 (centres unmarked) [Compound 18]

- IC50 ([1]; read-out: IC50 value): < 1100 nM
- DC50 [2, 3]: < 30 nM
- DC50 [2, 4]: ≤ 30 nM
SMILES: O=C1CCC(N2Cc3ccc(COC(=O)Nc4ccc5c(c4)OCCC5)cc3C2=O)C(=O)N1 (centres unmarked) [Compound 92]

- IC50 ([1]; read-out: rFP IC50): < 500 nM
- DC50 [2, 3]: > 300 nM
SMILES: O=C1CCC(N2Cc3ccc(COC(=O)Nc4cnc5c(c4)COCC5)cc3C2=O)C(=O)N1 (centres unmarked) [Compound 54]
